Data set [1] is classed as physicochemical. Particulars: for Concentration measured by HPLC after treatment: pH 7 buffer, test temperature e.g. 20° C. As for the experimental part: A stock pH 7 buffer solution was prepared by adding aqueous sodium hydroxide solution (0.1 M, 145 mL) to aqueous potassium dihydrogen phosphate solution (0.1 M, 250 mL), and then adding sufficient distilled water to adjust the final volume to 500 mL. At least 1 time and up to about 5 times the amount of metsulfuron-methyl needed for saturation was added to a mixing vessel containing stock buffer solution at the test temperature (e.g., 20° C.). The mixture was magnetically stirred in the dark while being maintained at the test temperature. Samples were periodically removed for analysis. The samples were centrifuged using a high speed, temperature-controlled centrifuge at the test temperature for about 20 minutes at >12000 G to remove suspended particles. An aliquot of each supernatant was taken for analysis. The concentration of metsulfuron-methyl in the supernatant was determined by a high pressure liquid chromatography (HPLC) with a reversed phase chromatography column and UV detection. The method should include development of best-fit calibration curves based on at least three standards using linear regression analysis Samples were successively withdrawn from the mixing vessel and analyzed until three successive samples show little or no variation in concentration. The test is preferably replicated to ensure accuracy.

Another data set is described as follows: Viscosity when dissolved. In kind it is physicochemical.
Data set [2] in a line: Cleanout test (residue in polyethylene bottles extracted with acetonitrile). Format: physicochemical. As to conditions: dispersed in tap water, stood overnight, lower = more effective cleanout. As for the experimental part: The test was conducted by dispersing in water a sample to produce a concentration that is normally used when applying the herbicide: 25% metsulfuron-methyl. The sample was added to tap water (300 mL) in a 400 mL beaker and magnetically stirred for 2 minutes. The mixture was then stirred for 2 minutes, whereupon the resulting dispersion was dispensed in three 100 mL aliquots to 4-oz (118 mL) polyethylene bottles. The bottles were capped, inverted twice and allowed to stand overnight.
After standing overnight, each individual bottle was inverted twice and the liquid contents were then poured out. Tap water (10 mL) was added and the bottle was inverted until all sediment was re-suspended, whereupon the contents were poured out. Tap water (100 mL) was added and the bottle was inverted twice and then allowed to stand undisturbed for 10 minutes. The bottle was inverted twice more and the contents were poured out. Acetonitrile (10 mL) was added to the bottle to extract any remaining material. The acetonitrile solution was analyzed by reversed-phase liquid chromatography with UV detection. The cleanout rating (the concentration of metsulfuron-methyl herbicide in the acetonitrile solution) is reported in % in Table 6 below.

The next data set has as its system weeds. The data set can be described thus: Activity in controlling weeds. Particulars: in vivo.
Where [3] appears, read: OD formulation, original concentration 40%.
Setting [4] is: SG formulation, original concentration 25%.
Setting [5] is: WG formulation, original concentration 25%.

Molecules are shown by their SMILES. Like-named read-outs stand apart in the source and are kept apart here.

Regarding `COC(=O)c1ccccc1S(=O)(=O)NC(=O)Nc1nc(C)nc(OC)n1` [Amorphous metsulfuron-methyl, methyl 2-[[[[(4-methoxy-6-methyl-1,3,5-triazin-2-yl)amino]carbonyl]amino]sulfonyl]benzoate, reference compound], the “Concentration measured by HPLC after treatment” value worked out at 14% in data set [1] (setting [3]), 15% in data set [1] (setting [4]) and 12% in data set [1] (setting [5]). The “Viscosity (in words)” value in the data set “Viscosity when dissolved” (listed as metsulfuron-methyl in amorphous state) is listed as “highly viscous”. For the same compound, the figures for the “Cleanout rating (concentration of metsulfuron-methyl in the acetonitrile solution)” value in data set [2] (OD formulation), in data set [2] (SG formulation) and in data set [2] (WG formulation) were 26%, 10% and 13%, respectively.
On to `COC(=O)c1ccccc1S(=O)(=O)NC(=O)Nc1nc(C)nc(OC)n1` [Metsulfuron-methyl, crystalline modification I] [methyl 2-(4-methoxy-6-methyl-1,3,5-triazin-2-ylcarbamoylsulfamoyl)benzoate], for which, in the data set on weeds, the “Activity in controlling weeds” value was “active in controlling weeds”. Further, the “Solubility (in words)” value in data set [1] is “significant increase”. Besides, the “Concentration measured by HPLC after treatment” value in data set [1] (setting [3]) was found to be 35%; in data set [1] (setting [4]), 24.9%; in data set [1] (setting [5]) it was 23%. In “Viscosity when dissolved” (listed as crystalline modification I of metsulfuron-methyl), the “Viscosity (in words)” value is recorded as “significant decrease”. Also, the “Cleanout rating (concentration of metsulfuron-methyl in the acetonitrile solution)” value in data set [2] (OD formulation) is recorded as 5%; in data set [2] (SG formulation), 0.1%; in data set [2] (WG formulation), 2%.

For the origin of these results see patent US20170121293A1, “PROCESS FOR PREPARING A NOVEL CRYSTALLINE FORM OF METSULFURON-METHYL AND USE OF THE SAME” (ROTAM AGROCHEM INTERNATIONAL COMPANY LIMITED, priority 2015, published 2017).
